Measured values from paper PMC12238850, “Molecular determinants for recognition of serotonylated chromatin” (Nucleic Acids Research, 2025).
Numbering of substitutions follows the chain as printed. Read-outs that look alike come from different tables or passages of the source.

What was measured:
Assay type in all cases: binding
[1] = target: T1, TAF3 S880A (GST-tagged PHD) (Mus musculus, UniProt Q5HZG4, S880A); experiment: ITC of GST-tagged Taf3-PHD S880A
T1 construct: Mus musculus Taf3-PHD domain (residues 857–924); made in house; host or cells: E. coli BL21(DE3)
T1 sequence (Q5HZG4 857-924 S880A): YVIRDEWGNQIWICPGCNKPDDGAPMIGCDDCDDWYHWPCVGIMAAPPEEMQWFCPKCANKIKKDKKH
Description: (§1) The coding sequences of Mus musculus Taf3-PHD domain (residues 857–924) and Homosapiens PHF2 (1–66), PHF8 (37–102), and BPTF(2) (2865–2921) were cloned into the pGEX2T-derived vector, pRP265NB, for bacterial expression of GST-tagged proteins. Note that the PHD fingers of M. musculus Taf3 and H. sapiens TAF3 differ in a single amino acid. A901 in mouse corresponds to T899 in human. Here, amino acid numbering corresponds to mouse Taf3 isoform 1 with UniProt ID: Q5HZG4, accessible at https://www.uniprot.org/uniprotkb/Q5HZG4/entry. Single or double mutations were introduced by mutagenesis polymerase chain reaction and validated by Sanger sequencing. A single colony of freshly transformed BL21(DE3) Escherichia coli bacteria with the corresponding construct was grown in Luria broth (LB) medium supplemented with 50 μg/ml ampicillin until an OD600 of 0.7. […]
(§2) ITC experiments were performed at 20°C with a MicroCal VP-ITC microcalorimeter (Malvern) by sequential injection of 10 μl at 300 μM histone peptide during 20 s into the sample cell containing 30 or 15 μM of GST-Taf3 (wild type or mutant) or GST-BPTF, GST-PHF2, and GST-PHF8 PHDs in ITC buffer (100 mM NaCl, 20 mM Tris–HCl, pH 7.5). […] ITC data were subsequently analysed and fitted with the one-site binding model in the MicroCal ITC Origin Analysis software 7.0 (Table 1, Figs 3B and 5A, Supplementary Table S3, and Supplementary Fig. S10). […]

[2] = target: T2, TAF3 W894F (GST-tagged PHD) (Mus musculus, UniProt Q5HZG4, W894F); experiment: ITC of GST-tagged Taf3-PHD W894F
T2 construct: Mus musculus Taf3-PHD domain (residues 857–924); made in house; host or cells: E. coli BL21(DE3)
T2 sequence (Q5HZG4 857-924 W894F): T1 sequence (Q5HZG4 857-924 S880A) with A24S, W38F
Description: as §1, §2

[3] = target: T3, TAF3 W894L (GST-tagged PHD) (Mus musculus, UniProt Q5HZG4, W894L); experiment: ITC of GST-tagged Taf3-PHD W894L
T3 construct: Mus musculus Taf3-PHD domain (residues 857–924); made in house; host or cells: E. coli BL21(DE3)
T3 sequence (Q5HZG4 857-924 W894L): T1 sequence (Q5HZG4 857-924 S880A) with A24S, W38L
Description: as §1, §2

[4] = target: T4, TAF3 P881E W894F (GST-tagged PHD) (Mus musculus, UniProt Q5HZG4, P881E/W894F); experiment: ITC of GST-tagged Taf3-PHD P881E W894F
T4 construct: Mus musculus Taf3-PHD domain (residues 857–924); made in house; host or cells: E. coli BL21(DE3)
T4 sequence (Q5HZG4 857-924 P881E/W894F): T1 sequence (Q5HZG4 857-924 S880A) with A24S, P25E, W38F
Description: as §1, §2

[5] = target: T5, PHF8 PHD (37–102, GST-tagged) (Homo sapiens, UniProt Q9UPP1); experiment: ITC of GST-tagged PHF8 PHD
T5 construct: PHF8 (37–102); made in house; host or cells: E. coli BL21(DE3)
T5 sequence (Q9UPP1 37-102): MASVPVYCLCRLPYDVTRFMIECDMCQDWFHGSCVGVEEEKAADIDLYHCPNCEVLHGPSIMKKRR
Description: as §1, §2

[6] = ITC, 20°C, 100 mM NaCl, 20 mM Tris–HCl, pH 7.5, one-site model, ± = standard error of fit, read-out: K D

C[C@H](N)C(=O)N[C@@H](CCCNC(=N)N)C(=O)N[C@H](C(=O)N[C@@H](CCCC[N+](C)(C)C)C(=O)N[C@@H](CCC(N)=O)C(=O)N[C@H](C(=O)N[C@@H](C)C(=O)N[C@@H](CCCNC(=N)N)C(=O)N[C@@H](CCCCN)C(=O)N[C@@H](CO)C(=O)N[C@H](C(=O)NCC(N)=O)[C@@H](C)O)[C@@H](C)O)[C@@H](C)O [H3K4me3] gave a Kd [1, 6] of 207 ± 34 nM, a Kd [2, 6] of 126 ± 12 nM and a Kd [3, 6] of 595 ± 35 nM. It also gave a Kd [4, 6] of 123 ± 10 nM and a Kd [5, 6] of 418 ± 20 nM.
Work on C[C@H](N)C(=O)N[C@@H](CCCNC(=N)N)C(=O)N[C@H](C(=O)N[C@@H](CCCC[N+](C)(C)C)C(=O)N[C@@H](CCC(=O)NCCc1c[nH]c2ccc(O)cc12)C(=O)N[C@H](C(=O)N[C@@H](C)C(=O)N[C@@H](CCCNC(=N)N)C(=O)N[C@@H](CCCCN)C(=O)N[C@@H](CO)C(=O)N[C@H](C(=O)NCC(N)=O)[C@@H](C)O)[C@@H](C)O)[C@@H](C)O [H3K4me3Q5ser] yielded a Kd [1] of 65 ± 5 nM, a Kd [2] of 102 ± 1 nM and a Kd [3] of 324 ± 18 nM. The Kd [4] was 111 ± 14 nM and the Kd [5] was 275 ± 19 nM.
